The values that follow come from patent US7776847B2, “Benzisothiazoles useful for treating or preventing HCV infection” (priority 2005, dated 2010).

Like-named read-outs stand apart in the source and are kept apart here.

By IC50 is commonly meant the point on the concentration scale where inhibition reaches its midpoint.

The subject of the assay is HCV replicon. The experiment in a line: HCV replicon luciferase reporter assay. To be noted: Table 5. Set-up: scale not given here. The assay is classed as cell-based. An outline of the steps:
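Replicon-bearing dividing cells seeded at 5,000–7,500 cells/well, grown 24 h at 37° C/5% CO2, then exposed to test compound at various concentrations for a further 24–48 h. Replication/translation read by luciferase reporter; IC50 taken as compound amount giving 50% reduction in luciferase activity.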
On the technique in general: A replicon is a self-replicating genome or part of one, used to study replication in cells.

[1] abbreviates: Hepatitis C virus, read-out: IC50.

In the case of `COc1ccc(-c2ccc(C(=O)NCCNc3nsc4ccccc34)cc2)c(C)c1` [Compound 366, N-(2-(benzo[d]isothiazol-3-ylamino)ethyl)-4′-methoxy-2′-methylbiphenyl-4-carboxamide], the IC50 under setting [1] is below 5 µM.
Turning to `O=S(=O)(NCCCNc1nsc2ccccc12)c1ccc(C(F)(F)F)cc1` [Compound 245, N-(3-(benzo[d]isothiazol-3-ylamino)propyl)-4-(trifluoromethyl)benzenesulfonamide], the IC50 under setting [1] was below 5 µM.
The same measure, in the same setting: the same measure for `CCCCc1ccc(CNCCCNc2nsc3ccccc23)cc1` [Compound 288, N^1-(benzo[d]isothiazol-3-yl)-N^3-(4-butylbenzyl)propane-1,3-diamine]: below 5 µM.
As to `CC(C)(C)OC(=O)N1CC=C(c2cccc(C(=O)NCCCNc3nsc4ccccc34)c2)CC1` [Compound 390, tert-butyl 4-(3-(3-(benzo[d]isothiazol-3-ylamino)propylcarbamoyl)phenyl)-5,6-dihydropyridine-1(2H)-carboxylate], under setting [1], the IC50 is below 5 µM.
For `COC(=O)c1ccc(S(=O)(=O)N(CCCNc2nsc3ccccc23)Cc2ccc(-c3ccc(OC)cc3)cc2)n1C` [Compound 317, methyl 5-(N-(3-(benzo[d]isothiazol-3-ylamino)propyl)-N-((4′-methoxybiphenyl-4-yl)methyl)sulfamoyl)-1-methyl-1H-pyrrole-2-carboxylate], the IC50 under setting [1] was below 5 µM.
Turning to `O=S(=O)(NCCCNc1nsc2ccccc12)c1cccc(OC(F)(F)F)c1` [Compound 266, N-(3-(benzo[d]isothiazol-3-ylamino)propyl)-3-(trifluoromethoxy)benzenesulfonamide], the IC50 under setting [1] is below 5 µM.
As to `O=C(NCCCNc1nsc2ccccc12)c1cc2ccc([N+](=O)[O-])cc2s1` [Compound 433, N-(3-(benzo[d]isothiazol-3-ylamino)propyl)-6-nitrobenzo[b]thiophene-2-carboxamide], under setting [1], the concentration for half-maximal inhibition (IC50) was below 5 µM.
Same read-out and setting: the same measure for `O=C(NCCNc1nsc2ccccc12)c1cccc(CO)c1` [Compound 416, N-(2-(benzo[d]isothiazol-3-ylamino)ethyl)-3-(hydroxymethyl)benzamide]: above 5 µM; for `COc1cccc(-c2cccc(C(=O)NCCCNc3nsc4ccccc34)c2)c1OC` [Compound 369, N-(3-(benzo[d]isothiazol-3-ylamino)propyl)-5′,6′-dimethoxybiphenyl-3-carboxamide]: below 5 µM.
As to `COc1ccc(COc2ccc(C(=O)NCCCNc3nsc4ccccc34)cc2)cc1OC` [Entry 237, N-(3-(benzo[d]isothiazol-3-ylamino)propyl)-4-(3,4-dimethoxybenzyloxy)benzamide], the 50% inhibitory concentration (IC50) under setting [1] was below 5 µM.
In the case of `O=[N+]([O-])c1cccc(S(=O)(=O)NCCCNc2nsc3ccccc23)c1` [Compound 242, N-(3-(benzo[d]isothiazol-3-ylamino)propyl)-3-nitrobenzenesulfonamide], the 50% inhibitory concentration (IC50) under setting [1] was below 5 µM.
In the case of `O=C(NCCCNc1nsc2ccccc12)c1ccc(F)cc1` [Entry 234, N-(3-(benzo[d]isothiazol-3-ylamino)propyl)-4-fluorobenzamide], the 50% inhibitory concentration (IC50) under setting [1] was below 5 µM.
Same read-out and setting: the same measure for `c1ccc(CN2CCCC(NCCCNc3nsc4ccccc34)C2)cc1` (stereo not shown) [Compound 306, N^1-(benzo[d]isothiazol-3-yl)-N^3-(1-benzylpiperidin-3-yl)propane-1,3-diamine]: below 5 µM; for `COc1ccc(-c2ccc(C(=O)NCCCNc3nsc4cccc(S(=O)(=O)NC(C)(C)C)c34)cc2)cc1` [Compound 398, N-(3-(4-(N-tert-butylsulfamoyl)benzo[d]isothiazol-3-ylamino)propyl)-4′-methoxybiphenyl-4-carboxamide]: above 5 µM; for `COc1ccc(Cl)cc1-c1cccc(CNCCCNc2nsc3ccccc23)c1` [Compound 302, N^1-(benzo[d]isothiazol-3-yl)-N^3-((3′-chloro-6′-methoxybiphenyl-3-yl)methyl)propane-1,3-diamine]: below 5 µM.
Regarding `COc1ccc(-c2ccc(C(=O)NCCCNc3nsc4ccc(-c5cccc(OC)c5F)cc34)cc2)cc1` [Compound 407, N-(3-(5-(2-fluoro-3-methoxyphenyl)benzo[d]isothiazol-3-ylamino)propyl)-4′-methoxybiphenyl-4-carboxamide], the half-maximal inhibitory concentration (IC50) under setting [1] is below 5 µM.
Still for that read-out and setting: the same measure for `Cc1ccc(-c2cccc(C(=O)NCCNc3nsc4ccccc34)c2)cc1C` [Compound 372, N-(2-(benzo[d]isothiazol-3-ylamino)ethyl)-3′,4′-dimethylbiphenyl-3-carboxamide]: below 5 µM.
The same measure, in the same setting: the same measure for `FC(F)(F)c1cccnc1NCCCNc1nsc2ccccc12` [Compound 276, N^1-(benzo[d]isothiazol-3-yl)-N^3-(3-(trifluoromethyl)pyridin-2-yl)propane-1,3-diamine]: below 5 µM; for `O=C1CCCN1c1ccc(CNCCCNc2nsc3ccccc23)cc1` [Compound 346, 1-(4-((3-(benzo[d]isothiazol-3-ylamino)propylamino)methyl)phenyl)pyrrolidin-2-one]: above 5 µM.
With `O=C(CC1CC1)NCCNc1nsc2ccccc12` [Entry 71, N-(2-(Benzo[d]isothiazol-3-ylamino)ethyl)-2-cyclopropylacetamide], the IC50 under setting [1] was above 5 µM.
With `c1ccc(CNCCNc2nsc3ccccc23)nc1` [Compound 272, N^1-(benzo[d]isothiazol-3-yl)-N^2-(pyridin-2-ylmethyl)ethane-1,2-diamine], where the note is “the head prints only IC50, b387 says Tables 5 and 6 hold Replicon reporter and Western blot results”, the IC50 result is recorded as “A, B”.
`Clc1ccc(NCCCNc2nsc3ccccc23)nc1` [Entry 226, N-(3-(5-chloropyridin-2-ylamino)propyl)benzo[d]isothiazol-3-amine]: under setting [1], the IC50 was below 5 µM.
As to `COc1ccc(-c2ccc(C(=O)NCCCNc3nsc4ccc(-c5ccc(OC)cc5)cc34)cc2)cc1` [Compound 406, 4′-methoxy-N-(3-(5-(4-methoxyphenyl)benzo[d]isothiazol-3-ylamino)propyl)biphenyl-4-carboxamide], the IC50 under setting [1] is below 5 µM.
Consider `COc1ccc(-c2ccc(CN(C)CCCNc3nsc4ccccc34)cc2)cc1` [Compound 490, N^1-(benzo[d]isothiazol-3-yl)-N^3-((4′-methoxybiphenyl-4-yl)methyl)-N^3-methylpropane-1,3-diamine], for which, under setting [1], the concentration for half-maximal inhibition (IC50) was below 5 µM.
On to `O=C(NCCCNc1nsc2ccccc12)c1ccc2[nH]cnc2c1` [Compound 449, N-(3-(benzo[d]isothiazol-3-ylamino)propyl)-1H-benzo[d]imidazole-5-carboxamide], for which the half-inhibitory concentration (IC50) under setting [1] was above 5 µM.
On to `COc1ccc(CNS(=O)(=O)c2ccc3snc(NCCCNC(=O)c4ccc(-c5ccc(OC)cc5)cc4)c3c2)cc1` [Compound 515, 4′-methoxy-N-(3-(5-(N-(4-methoxybenzyl)sulfamoyl)benzo[d]isothiazol-3-ylamino)propyl)biphenyl-4-carboxamide], for which, under setting [1], the IC50 is above 5 µM.
For `Cc1cccc(NCCCNc2nsc3ccccc23)n1` [Compound 281, N^1-(benzo[d]isothiazol-3-yl)-N^3-(6-methylpyridin-2-yl)propane-1,3-diamine], under setting [1], the half-maximal inhibitory concentration (IC50) was below 5 µM.
Take `COc1ccc(-c2ccc(CN(CCCNc3nsc4ccccc34)C(=O)CC3CCCN3)cc2)cc1` (stereo not shown) [Compound 320, N-(3-(benzo[d]isothiazol-3-ylamino)propyl)-N-((4′-methoxybiphenyl-4-yl)methyl)-2-(pyrrolidin-2-yl)acetamide]: the IC50 under setting [1] is below 5 µM.
